Source: patent US11225484B2, “Substituted octahydropyrrolo[3,4-b]pyrroles as antagonists of the muscarinic acetylcholine receptor M4” (Vanderbilt University, priority 2017, dated 2022)

What was measured:
[1] = target: T1, Human M4 (Homo sapiens, UniProt P08173); assay: mAChR M4 cell-based functional assay (calcium flux, human M4/Gqi5/CHO cells); conditions: for remaining activity at 30 µM: CHO, % ACh maximum at 30 μM, read-out: Emin (%) human M4; for IC50: antagonist mode, decrease of the response to an EC80 concentration of acetylcholine, CHO-K1 cells with Gqi5
T1 construct: expressed in transfected cells; host or cells: CHO-K1 (ATCC), co-transfected with chimeric G protein Gqi5
T1 sequence (P08173 1-479): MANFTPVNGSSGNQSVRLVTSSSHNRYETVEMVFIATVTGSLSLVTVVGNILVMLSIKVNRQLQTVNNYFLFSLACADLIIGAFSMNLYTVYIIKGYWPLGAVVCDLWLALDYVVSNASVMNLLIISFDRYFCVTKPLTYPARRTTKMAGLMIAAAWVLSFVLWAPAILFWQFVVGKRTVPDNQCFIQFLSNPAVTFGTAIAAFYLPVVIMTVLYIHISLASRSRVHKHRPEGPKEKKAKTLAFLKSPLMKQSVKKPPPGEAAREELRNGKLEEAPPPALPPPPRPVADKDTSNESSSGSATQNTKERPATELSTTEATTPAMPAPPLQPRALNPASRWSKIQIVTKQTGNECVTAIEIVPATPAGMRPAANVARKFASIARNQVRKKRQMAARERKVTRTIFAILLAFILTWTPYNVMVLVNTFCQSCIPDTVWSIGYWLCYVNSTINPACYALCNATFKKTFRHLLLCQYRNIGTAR
Procedure: (§1) Human or rat M4 cDNA, along with the chimeric G protein Gqi5, were transfected into Chinese hamster ovary (CHO-K1) cells purchased from the American Type Culture Collection using Lipofectamine2000. M4/Gqi5/CHO cells were grown in Ham's F-12 medium containing 10% heat-inactivated fetal bovine serum (FBS), 20 mM HEPES, 500 μg/mL G418 sulfate, and 200 μg/mL Hygromycin B.
(§2) For high throughput measurement of agonist-evoked increases in intracellular calcium, CHO-K1 cells stably expressing muscarinic receptors were plated in growth medium lacking G418 and hygromycin at 15,000 cells/20 μL/well in Greiner 384-well black-walled, tissue culture (TC)-treated, clear-bottom plates (VWR). Cells were incubated overnight at 37° C. and 5% CO2. The next day, cells were washed using an ELX 405 (BioTek) with assay buffer; the final volume was then aspirated to 20 μL. Next, 20 μL of a 2.3 μM stock of Fluo-4/acetoxymethyl ester (Invitrogen, Carlsbad, Calif.), prepared as a 2.3 mM stock in DMSO and mixed in a 1:1 ratio with 10% (w/v) Pluronic F-127 and diluted in assay buffer, was added to the wells and the cell plates were incubated for 50 min at 37° C. and 5% CO2. Dye was removed by washing with the ELX 405 and the final volume was aspirated to 20 μL. Compound master plates were formatted in a 10 point concentration-response curve (CRC) format (1:3 dilutions) in 100% DMSO with a starting concentration of 10 or 1 mM using a BRAVO liquid handler (Agilent). Test compound CRCs were then transferred to daughter plates (240 nL) using the Echo acoustic plate reformatter (Labcyte, Sunnyvale, Calif.) and then diluted into assay buffer (40 μL) to a 2× stock using a Thermo Fisher Combi (Thermo Fisher Scientific, Waltham, Mass.).
(§3) Calcium flux was measured using the Functional Drug Screening System (FDSS) 6000 or 7000 (Hamamatsu Corporation, Tokyo, Japan) as an increase in the fluorescent static ratio. Compounds were applied to cells (20 μL, 2×) using the automated system of the FDSS at 2 seconds into the protocol and the data were collected at 1 Hz. At 143 s, 10 μL of an EC20 concentration of the muscarinic receptor agonist acetylcholine was added (5×), followed by the addition of 12 μL of an EC80 concentration of acetylcholine at the 268 s time point (5×). Agonist activity was analyzed as a concentration-dependent increase in calcium mobilization upon compound addition. Positive allosteric modulator activity was analyzed as a concentration-dependent increase in the EC20 acetylcholine response. Antagonist activity was analyzed as a concentration-dependent decrease in the EC80 acetylcholine response for the purposes of the tables herein, an IC50 (inhibitory concentration 50) was calculated as a concentration-dependent decrease of the response elicited by an EC80 concentration of acetylcholine, Concentration-response curves were generated using a four-parameter logistical equation in XLFit curve fitting software (IDBS, Bridgewater, N.J.) for Excel (Microsoft, Redmond, Wash.) or Prism (GraphPad Software, Inc., San Diego, Calif.) or the Dotmatics software platform (Dotmatics, Bishop's Stortford, UK).
(§4) Compounds were synthesized as described above. Activity (IC50 and Emin) was determined in the mAChR M4 cell-based functional assay as described above and the data are shown in Table 2. The compound number corresponds to the compound numbers used in Examples 1-3.

[2] = target: T2, Rat M4 (Rattus norvegicus, UniProt P08485); assay: mAChR M4 cell-based functional assay (calcium flux, rat M4/Gqi5/CHO cells); conditions: for remaining activity at 30 µM: CHO, % ACh maximum at 30 μM, read-out: Emin (%) rat M4; for IC50: antagonist mode, decrease of the response to an EC80 concentration of acetylcholine, CHO-K1 cells with Gqi5
T2 construct: expressed in transfected cells; host or cells: CHO-K1 (ATCC), co-transfected with chimeric G protein Gqi5
T2 sequence (P08485 1-478): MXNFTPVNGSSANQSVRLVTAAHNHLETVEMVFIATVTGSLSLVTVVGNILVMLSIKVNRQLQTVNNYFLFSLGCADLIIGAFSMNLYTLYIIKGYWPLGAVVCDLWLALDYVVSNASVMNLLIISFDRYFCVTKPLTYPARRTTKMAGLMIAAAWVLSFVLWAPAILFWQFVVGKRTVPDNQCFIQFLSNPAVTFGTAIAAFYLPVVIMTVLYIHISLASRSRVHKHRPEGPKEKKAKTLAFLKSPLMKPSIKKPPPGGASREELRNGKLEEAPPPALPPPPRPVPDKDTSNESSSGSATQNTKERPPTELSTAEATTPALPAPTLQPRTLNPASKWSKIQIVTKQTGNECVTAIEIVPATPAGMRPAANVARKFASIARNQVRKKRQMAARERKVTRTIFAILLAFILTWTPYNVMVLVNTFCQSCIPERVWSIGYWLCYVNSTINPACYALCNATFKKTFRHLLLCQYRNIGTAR
Procedure: as §1, §2, §3, §4

[3] = test system: catalepsy induced by the DA receptor antagonist haloperidol; assay: haloperidol-induced catalepsy; type: in vivo, mice
Description: Furthermore, haloperidol-induced catalepsy, a model of parkinsonian motor disability, is reduced in M4 knockout mice as compared to wild-type controls. […] The reversal by scopolamine was uncommonly robust and more pronounced than we observe with agents targeting a number of other targets being evaluated for potential antiparkinsonian effects, including metabotropic glutamate (mGlu) receptors mGlu4 or mGlu5, A2A adenosine receptors, and NMDA receptors. […] Taken together with the extensive studies of M4 modulation of basal ganglia and motor function, these studies provide compelling evidence that M4 is the dominant mAChR subtype involved in the antiparkinsonian effects of non-selective mAChR antagonists and provide support for discovery and development of selective M4 antagonists for treatment of neurodegenerative disease such as PD, dystonia, tardive dyskinesia and other movement disorders.

[4] = test system: locomotor activity; conditions: M4 knockout mice, but not the other four mAChR subtypes; cited from earlier work

SMILES | remaining activity at 30 µM [1] | IC50 [1] | remaining activity at 30 µM [2] | IC50 [2] | reduction of haloperidol-induced catalepsy ([3]; M4 KO mice) | reversal of haloperidol-induced catalepsy ([3]; WT mice) | locomotor-activating effects [4]
Fc1ccc(-c2ccc(N3CCC4CN(CC56CC7CC(CC(C7)C5)C6)CC43)nn2)c(Cl)c1 (stereo not drawn) [Compound 18, 5-(adamantan-1-ylmethyl)-1-(6-(2-chloro-4-fluorophenyl)pyridazin-3-yl)octahydropyrrolo[3,4-b]pyrrole] | 12% | > 10000 nM | 36.4% | > 10000 nM |  |  | 
Cc1cnn(C)c1-c1ccc(N2CCC3CN(CC4CCOCC4)CC32)nn1 (stereo not drawn) [Compound 22, 1-(6-(1,4-dimethyl-1H-pyrazol-5-yl)pyridazin-3-yl)-5-((tetrahydro-2H-pyran-4-yl)methyl)octahydropyrrolo[3,4-b]pyrrole] | 36.1% | > 10000 nM | 69.7% | > 10000 nM |  |  | 
CN1[C@@H]2C[C@@H](OC(=O)[C@H](CO)c3ccccc3)C[C@H]1[C@@H]1O[C@@H]12 [scopolamine] |  |  |  |  | ineffective in reducing catalepsy | completely reversed | dramatically reduced

The remaining molecules from weak to strong by IC50 [1], led by results:

remaining activity at 30 µM [1] | IC50 [1] | remaining activity at 30 µM [2] | IC50 [2] | SMILES | reduction of haloperidol-induced catalepsy ([3]; M4 KO mice) | reversal of haloperidol-induced catalepsy ([3]; WT mice) | locomotor-activating effects [4]
8.8% | 2220 nM | 22.7% | > 10000 nM | Cc1cnn(C)c1-c1ccc(N2CCC3CN(CCC(C)(C)C)CC32)nn1 (stereo not drawn) [Compound 20, 1-(6-(1,4-dimethyl-1H-pyrazol-5-yl)pyridazin-3-yl)-5-(3,3-dimethylbutyl)octahydropyrrolo[3,4-b]pyrrole] |  |  | 
4.08% | 147 nM | 3.71% | 601 nM | Cc1cnn(C)c1-c1ccc(N2CC[C@@H]3CN(CC45CC6CC(CC(C6)C4)C5)C[C@@H]32)nn1 [Compound 21, (3aR,6aR)-5-(adamantan-1-ylmethyl)-1-(6-(1,4-dimethyl-1H-pyrazol-5-yl)pyridazin-3-yl)octahydropyrrolo[3,4-b]pyrrole] |  |  | 
3.18% | 129 nM | 4.41% | 365 nM | Cc1nn(C)c(C)c1-c1ccc(N2CCC3CN(CC45CC6CC(CC(C6)C4)C5)CC32)nn1 (stereo not drawn) [Compound 19, 5-(adamantan-1-ylmethyl)-1-(6-(1,3,5-trimethyl-1H-pyrazol-4-yl)pyridazin-3-yl)octahydropyrrolo[3,4-b]pyrrole] |  |  | 
3.91% | 102 nM | 4.52% | 326 nM | Cc1cnn(C)c1-c1ccc(N2CC[C@H]3CN(CC45CC6CC(CC(C6)C4)C5)C[C@H]32)nn1 [Compound 23, (3aS,6aS)-5-(adamantan-1-ylmethyl)-1-(6-(1,4-dimethyl-1H-pyrazol-5-yl)pyridazin-3-yl)octahydropyrrolo[3,4-b]pyrrole] |  |  | 
